Assay results reported in EP0115400A1, “Triazole antifungal agents” (Pfizer Limited, priority 1983, dated 1984).

These compounds were tested on Candida albicans (assay: in vivo oral protection of mice inoculated with a lethal infection of Candida albicans). Details: oral administration to mice with lethal Candida albicans infection; survival of treated group after death of untreated group, 48 hours observation.
Description: The in vivo evaluation of the compounds can be carried out at a series of dose levels by intraperitoneal or intravenous injection or by oral administration, to mice which are inoculated with a strain of Candida albicans. Activity is based on the survival of a treated group of mice after the death of an untreated group of mice following 48 hours observation. The dose level at which the compound provides 50X protection against the lethal effect of the infection is noted.
The compounds of the Examples were tested in vivo by oral administration to mice inoculated with a lethal infection of Candida albicans according to the procedures described herein. The dose levels providing 50% protection (PD50) were as follows: […]

SMILES	PD50 (dose level providing 50% protection)
Cn1cnnc1CC(O)(Cn1cncn1)c1ccc(Cl)cc1Cl (stereo not drawn) [Example 3 (3), 2-(2,4-Dichlorophenyl)-1-(4-methyl-1,2,4-triazol-3-yl)-3-(1H-1,2,4-triazol-l-yl)propan-2-ol]	3.5 mg/kg/p.o.
Cn1ncnc1CC(O)(Cn1cncn1)c1ccc(Cl)cc1Cl (stereo not drawn) [Example 3 (2), 2-(2,4-Dichlorophenyl)-1-(2-methyl-1,2,4-triazol-3-yl)-3-(1H-1-2,4-triazol-1-yl)propan-2-ol]	20 mg/kg/p.o.

Same assay, conditions: oral administration to mice with lethal Candida albicans infection; survival of treated group after death of untreated group, 48 hours observation; read-out: PD50 (dose level providing 50% protection)

SMILES	ED50
OC(Cc1ncn[nH]1)(Cn1cncn1)c1ccc(Cl)cc1Cl (stereo not drawn) [Example 2, 2-(2,4-Dichlorophenyl)-1-(1,2,4-triazol-3-yl)-3-(1H-1,2,4-triazol-1-yl)propan-2-ol, dioxalate]	2.2 mg/kg
OC(Cc1ncc[nH]1)(Cn1cncn1)c1ccc(Cl)cc1Cl (stereo not drawn) [Example 4, 2-(2,4-Dichlorophenyl)-1-(imidazol-2-yl)-3-(1H-1,2,4-triazol-1-yl)propan-2-ol]	1.2 mg/kg
Cn1nnnc1CC(O)(Cn1cncn1)c1ccc(Cl)cc1Cl (stereo not drawn) [Example 1, 2-(2,4-Dichlorophenyl)-1-(1-methyltetrazol-5-yl)-3-(lH-1,2,4-triazol-l-yl)propan-2-ol]	0.1 mg/kg
Cn1ccnc1CC(O)(Cn1cncn1)c1ccc(Cl)cc1Cl (stereo not drawn) [Example 5, 2-(2,4-Dichlorophenyl)-1-(1-methylimidazol-2-yl)-3-(1H-1,2,4-triazol-1-yl)propan-2-ol dimesylate]	1 mg/kg
